How the values were obtained:
Egr-1 mRNA = test: cells; format: cell-based, mouse
Experimental: 10 µg of RNA was applied to each lane and subjected to Northern blot analysis using an Egr-1 specific cDNA probe [1.6 kb Bgl II fragment (Sukhatme et al, Cell 53, 37-48, 1988)]. The same blots were rehybridized with actin or GADPH cDNA for normalizing the amount of RNA loaded. The blots were dried and autoradiographed. • (A). Time course of okadaic acid-induced Egr-1 and c-jun messages in primary human fibroblasts. Quiescent human fibroblasts were induced with 1 µM of okadaic acid for the time periods indicated. […] Time course of okadaic acid-induced Egr-1 message in Balb/c 3T3 cells. Quiescent Balb/c 3T3 cells were induced with okadaic acid (0.5µM) for the times indicated. • (C). Concentration dependent induction of Egr-1 message by okadaic acid in Balb/c 3T3 cells. Quiescent Balb/c 3T3 cells were induced with the indicated concentrations of okadaic acid for 1 h. As controls, different concentrations of DMSO were included. These corresponded to the amounts present in 0.25 µM okadaic acid (0.025% dimethyl sulphoxide (DMSO)) 0.5 µM okadaic acid (0.05% DMSO) and 1 µM okadaic acid (0.1%). • (D). Concentration dependent and time course induction of Egr-1 message by calyculin A. Quiescent Balb/c 3T3 cells were induced with different concentrations of calyculin A for 1 h. Northern analysis of this dose-dependent induction by calyculin A is shown on the left panel of the figure. […] Northern analysis of this time course induction by calyculin A is shown in the right panel of the figure. The same blot was rehybridized with pCMV-fos (Curran et al, Oncogene 2, 79-84, 1987) and pCMV-jun (Rauscher et al, 1988) shown in the middle panel. The blot was dried and autoradiographed.
Quiescent primary human fibroblasts were incubated with okadaic acid (OA) or TPA for 1 or 3 h. The concentrations of OA and TPA were 0.5 µM and 120 ng/ml, respectively. The concentration of 1-(5-isoquinolinylsulfonyl)-2-methylpiperazine dihydrochloride (H7) and N-(2-guanidinoethyl)-5-isoquinolinesulphonamide dihydrochloride (HA1004) used was 25 µM. The cells were pre-treated for 15 min with H7 or HA1004 before they were induced by OA or TPA for 1 or 3 h. Cells were harvested, RNA was isolated and subjected to Northern blot analysis. The blot was probed with Egr-1 or GADPH cDNA. • (B). As a positive control, primary human fibroblasts were treated with TPA (30 ng/ml) for 1 h (1st lane). The fibroblasts were also pre-treated with H7 (25 µM) or HA1004 (25 µM) for 15 min before treatment with TPA for 1 h (2nd and 3rd lanes respectively). […] The blot was probed with Egr-1 or actin cDNA. • (C). Quiescent Balb/c 3T3 cells were incubated with OA, TPA or dBt-cAMP for 1 h or pre-treated with H7 (25 µM) or HA1004 (25 µM) for 15 min and then incubated with each of the agonists for 1 h. Cells were harvested, RNA was isolated and subjected to Northern blot analysis. The concentration of each agonist used was as follows: lane a: 0.5 µM of OA, lane b: 100 ng/ml of TPA, lane c: 1 mM of dBt-cAMP, lane d: H7 plus OA (0.5 µM), lane e: H7 plus TPA (100 ng/ml), lane f: H7 plus dBt-cAMP (1 mM), lane g: HA1004 plus OA (0.5 µM), lane h: HA1004 plus TPA (100 ng.ml), lane i: HA1004 plus dBt-cAMP (1mM). The blot was probed with Egr-1 or GADPH cDNA.
Cell Cultures and Reagents. Human diploid foreskin fibroblasts were a gift from Dr J Vilcek (New York University, New York). The cells were grown in MEM supplemented with 10% fetal bovine serum (Hyclone, Logan, UT, US), Mouse Balb/c 3T3 cells were purchased from the American Type Culture Collection and grown in Dulbecco's MEM (DMEM) supplemented with 10% fetal bovine serum. Okadaic acid, calyculin A, H7, and HA1004 were purchased from Biomol Research Laboratories (Plymouth Meeting, PA, US). TPA, puromycin and dBt-cAMP were purchased from Sigma (St Louis, MO, US) 1 mM stock solutions of okadaic acid or calyculin A were solubilized in DMSO. [³²P]orthophosphate and other radioactive chemicals were purchased from Du Pont-New England Nuclear (Boston, MA). […]

human fibroblasts = test: Early protein phosphorylation changes in 32P-labeled cells, two-dimensional gel electrophoresis with computerized densitometry; format: cell-based
Experimental: The cells were then subjected to analysis by high resolution two-dimensional gel electrophoresis combined with computerized imaging as previously described (Guy et al, J. Biol. Chem. 266, 14343-14352, 1991).
Radiolabeling of Cells and Cell Lysis - For labeling with [³²P]orthophosphate cells were plated onto 90 mm plastic tissue culture dishes and incubated for 3 days for the cells to become confluent. Immediately before labeling, the media was removed and the cells were washed twice with 5 ml of phosphate- and serum-free media (150 mM NaCl, 5 mM MgCl₂, 5 mM KCl, 1.6 mM CaCl₂, 0.5% glucose, 10 mM Tris, 0.1% bovine serum albumin, pH 7.4) before the addition of 1 mCi/ml of [³²P]orthophosphate in 3 ml of the same media to each plate. The plates were incubated at 37°C in a humidified CO₂ incubator for 2 h before the addition of the okadaic acid or other agonists at the concentrations and for the times indicated in the figures and table. The agonists were reconstituted in aqueous buffered solution or in dimethyl sulfoxide. […] At the completion of labeling the media was removed, and the cells were rapidly washed twice with 5 ml of ice-cold phosphate-buffered saline before being solubilised in 200 µl of cytosol extraction buffer (10mM Tris-HCl, 50 mM EDTA, 50 mM NaCl, 30 mM sodium pyrophosphate, 50 mM NaF, 100µM Na₃VO₄, 0.65% Nonidet P-40, 2 mM leupeptin, 2mM phenylmethylsulfonyl fluoride, pH 7.4). The lysate was collected and centrifuged for 5 min at 14,000 rpm. The pellet containing the nuclear fraction (including the cytoskeletal-membrane fractions) was separated from the cytosolic fraction. Both fractions were lyophilized.
Two-dimensional Gel Electrophoresis - The lyophilized fractions (each of approximately 12 µg) were subjected to isoelectric focusing for 18,000 V/h with pH 3-10 ampholytes using the Millipore Investigator two-dimensional electrophoresis system (Millipore). Following this, the first-dimension gel was extruded and equilibrated in SDS buffer for 2 min before being loaded onto the second dimension 12.5% SDS-polyacrylamide gel. The gel was fixed, dried and ³²P-labeled polypeptides were located by autoradiography by using intensifying screens at -80°C. For measurement of the pH profile, carbamylated protein standards (Pharmacia LKB Biotechnology Inc.) were co-run on duplicate gels and related to proteins of known pI on previously calibrated samples. Molecular weight marker proteins from Sigma were detected by Coomassie Blue staining and marked on the autoradiogram. ³²P-Labeled 27 hsp complex prepared from human fibroblasts heat shocked at 43°C for 30 min was also used as a marker.
Quantitative Determination of Protein Phosphorylation - The amount of protein phosphorylation on autoradiographs derived from cytosolic membrane or antibody-precipitated preparations containing equal amounts of protein were analyzed by computerized densitometry using a Visage 2000 Image analysis system (BioImage Products, Ann Arbor, MI, US).
The ³²P-labeled protein spots are resolved and detected by autoradiography of the high definition two-dimensional gel electrophoresis of cytosolic extracts prepared from ³²P-labeled human fibroblasts. The radioactive spots (each representing one or more phosphoproteins) are analyzed by computerized densitometry. Each spot is arbitrarily assigned a number. […]

[1] = cytosolic fraction, first 15 min of ligand treatment

## C=C1[C@@H](O)[C@@H]2O[C@]3(CC[C@H](/C=C/[C@@H](C)[C@@H]4CC(C)=C[C@@]5(O[C@H](C[C@@](C)(O)C(=O)O)CC[C@H]5O)O4)O3)CC[C@H]2O[C@@H]1[C@@H](O)C[C@H](C)[C@H]1O[C@@]2(CCCCO2)CC[C@H]1C [okadaic acid]
Egr-1 mRNA; 0.5 µM
  time for which the Egr-1 mRNA level is maintained: up to 7 h
  time of maximal induction of Egr-1 mRNA: about 2 h
  time to induction of Egr-1 mRNA: ≤ 1 h
Egr-1 mRNA; 1 h, calyculin A compared with okadaic acid
  concentration inducing an equivalent fold increase in Egr-1 mRNA: 1000 nM
Egr-1 mRNA; Mus musculus, BALB/c3T3, 0.5 µM, maintained level, read-out: Egr-1 mRNA level over control
  fold induction at 0.5 µM: 30 to 40
Human fibroblasts; [1]
  number of proteins dephosphorylated: six
  number of proteins with early phosphorylation changes: about 60 proteins
Human fibroblasts; cytosolic fraction, okadaic acid, 15 min, TNF 50 units/ml
  identity of changes in early protein phosphorylation with those induced by TNF: about 95%
Human fibroblasts; nuclear/cytoskeletal membrane fraction, 46-50 proteins, 15 min
  changes in protein phosphorylation compared with TNF treatment (in words): almost identical changes
